IC50 data for seven compounds are collected here from patent US7902240B2, “Substituted pyrazole and triazole compounds as KSP inhibitors” (Novartis AG, priority 2006, dated 2011).

pIC50: −log10 of the molar value. Several values for one entry are separate records, joined by “and”; a condition that tells them apart may be missing. Equal entries are not always repeated.

For the assay, the target named is T1, motor domain of human KSP (Eg 5, KNSL1) (Homo sapiens, UniProt P52732).
T1 construct: KSP motor protein (i.e., the KSP motor domain); made in house
T1 sequence (P52732 18-359 limits assumed): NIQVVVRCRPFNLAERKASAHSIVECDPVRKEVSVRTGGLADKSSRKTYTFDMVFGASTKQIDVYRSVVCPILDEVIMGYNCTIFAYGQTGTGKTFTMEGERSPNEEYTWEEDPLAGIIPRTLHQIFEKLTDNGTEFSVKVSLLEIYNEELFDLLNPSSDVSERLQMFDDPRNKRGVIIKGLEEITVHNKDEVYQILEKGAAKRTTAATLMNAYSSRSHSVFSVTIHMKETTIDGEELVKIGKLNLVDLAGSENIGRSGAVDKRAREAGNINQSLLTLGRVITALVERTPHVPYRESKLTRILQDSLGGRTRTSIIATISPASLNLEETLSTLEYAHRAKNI
Description: Assay for determining KSP activity (microtubule-stimulated ATPase, Biomol Green). The following applies: KSP motor domain 45 nM, microtubules 35 μg/mL, ATP, 1 hour RT, absorbance at 630 nm. The class given is biochemical. From the text:
This example provides a representative in vitro assay for determining KSP activity in vitro. Purified microtubules obtained from bovine brain were purchased from Cytoskeleton Inc. (Denver, Colo., USA). The motor domain of human KSP (Eg 5, KNSL1) was cloned, expressed, and purified to greater than 95% homogeneity. Biomol Green was purchased from Affinity Research Products Ltd. (Matford Court, Exeter, Devon, United Kingdom). Microtubules and KSP motor protein (i.e., the KSP motor domain) were diluted in assay buffer (20 mM Tris-HCl (pH 7.5), 1 mM MgCl2, 10 mM DTT and 0.25 mg/mL BSA) to a final concentration of 35 μg/mL microtubules and 45 nM KSP. The microtubule/KSP mixture was then pre-incubated at 37° C. for 10 min to promote the binding of KSP to microtubules.
To each well of the testing plate (384-well plate) containing 1.25 μL of inhibitor or test compound in DMSO (or DMSO only in the case of controls) were added 25 μL of ATP solution (ATP diluted to a concentration of 300 μM in assay buffer) and 25 μL of the above-described microtubule/KSP solution. The plates were incubated at RT for 1 hour. Following incubation, 65 μL of Biomol Green (a malachite green-based dye that detects the release of inorganic phosphate) was added to each well. The plates were incubated for an additional 5-10 minutes then the absorbance at 630 nm was determined using a Victor II plate reader. The amount of absorbance at 630 nm corresponded to the amount of KSP activity in the samples. The IC50 of each inhibitor or test compound was then determined based on the decrease in absorbance at 630 nm at each concentration, via nonlinear regression using either XLFit for Excel or Prism data analysis software by GraphPad Software Inc.
On to `C[C@H](O)C(=O)N(CC[C@@H](N)C(F)F)[C@@H](c1nc(-c2cc(F)ccc2F)nn1Cc1cccc(C(F)(F)F)c1)C(C)(C)C` [Compound 78, (S)-N-((R)-3-amino-4,4-difluorobutyl)-N-((R)-1-(3-(2,5-difluorophenyl)-1-(3-(trifluoromethyl)benzyl)-1H-1,2,4-triazol-5-yl)-2,2-dimethylpropyl)-2-hydroxypropanamide], for which the negative-log IC50 (pIC50) was < 7.00 and ≥ 6.00.

For `C[C@H](O)C(=O)N(CC[C@H](N)C(F)F)[C@@H](c1nc(-c2cc(F)ccc2F)nn1Cc1cccc(C(F)(F)F)c1)C(C)(C)C` [Compound 80, (S)-N-((S)-3-amino-4,4-difluorobutyl)-N-((R)-1-(3-(2,5-difluorophenyl)-1-(3-(trifluoromethyl)benzyl)-1H-1,2,4-triazol-5-yl)-2,2-dimethylpropyl)-2-hydroxypropanamide], the pIC50 was < 7.00 and ≥ 6.00.

Take `C[C@H](O)C(=O)N(CC[C@H](N)CF)[C@@H](c1nc(-c2cc(Cl)cc(Cl)c2)nn1Cc1ccccc1)C(C)(C)C` [Compound 71, (S)-N-((S)-3-amino-4-fluorobutyl)-N-((R)-1-(1-benzyl-3-(3,5-dichlorophenyl)-1H-1,2,4-triazol-5-yl)-2,2-dimethylpropyl)-2-hydroxypropanamide]: the pIC50 is below 6.00.

For `C[C@H](O)C(=O)N(CC[C@@H](N)C(F)F)[C@@H](c1nc(-c2cc(F)ccc2F)nn1Cc1cccc(C#N)c1)C(C)(C)C` [Compound 77, (S)-N-((R)-3-amino-4,4-difluorobutyl)-N-((R)-1-(1-(3-cyanobenzyl)-3-(2,5-difluorophenyl)-1H-1,2,4-triazol-5-yl)-2,2-dimethylpropyl)-2-hydroxypropanamide], the pIC50 was < 7.00 and ≥ 6.00.

For `CC(C)c1cccc(Cn2nc(-c3cc(F)ccc3F)nc2[C@H](N(CC[C@@H](N)C(F)F)C(=O)[C@H](C)O)C(C)(C)C)c1` [Compound 86, (S)-N-((R)-3-amino-4,4-difluorobutyl)-N-((R)-1-(3-(2,5-difluorophenyl)-1-(3-isopropylbenzyl)-1H-1,2,4-triazol-5-yl)-2,2-dimethylpropyl)-2-hydroxypropanamide], the negative-log IC50 (pIC50) was below 6.00.

`CC(C)c1cccc(Cn2nc(-c3cc(F)ccc3F)nc2[C@H](N(CC[C@H](N)C(F)F)C(=O)[C@H](C)O)C(C)(C)C)c1` [Compound 85, (S)-N-((S)-3-amino-4,4-difluorobutyl)-N-((R)-1-(3-(2,5-difluorophenyl)-1-(3-isopropylbenzyl)-1H-1,2,4-triazol-5-yl)-2,2-dimethylpropyl)-2-hydroxypropanamide] gave a negative-log IC50 (pIC50) below 6.00.

Regarding `Cc1cccc(Cn2nc(-c3cc(F)ccc3F)nc2[C@H](N(CC[C@H](N)C(F)F)C(=O)[C@H](C)O)C(C)(C)C)c1` [Compound 79, (S)-N-((S)-3-amino-4,4-difluorobutyl)-N-((R)-1-(3-(2,5-difluorophenyl)-1-(3-methylbenzyl)-1H-1,2,4-triazol-5-yl)-2,2-dimethylpropyl)-2-hydroxypropanamide], the negative logarithm of the IC50 (pIC50) was at least 7.00.
